The record followed here is patent US9346814B2, “FAP inhibitors” (UNIVERSITEIT ANTWERPEN, priority 2012, dated 2016).

For data set [1], the target named is T1, FAP (Mus musculus (Mouse), UniProt P97321). Put plainly: FAP IC50, purified enzyme, substrate Ala-Pro-p-nitroanilide. It is filed as biochemical, murine. The procedure:
(§1) DPP IV, DPP II, DPP8 and DPP9 were obtained as described in reference 18. Recombinant murine FAP was purified from the culture supernatant of HEK293 human embryonic kidney celline as described in reference 19. Recombinant human PREP was expressed in and purified from E coli as described before in reference 20.
(§2) One unit of enzyme activity was defined as the amount of enzyme that catalyzes the release of 1 μmol pNA from the substrate per minute under assay conditions.
(§3) All measurements were carried out in duplicate.
(§4) The chromogenic substrate Gly-Pro-p-nitroanilide (100 μmol/l) was used at pH 8.3 for DPP IV, Lys-Ala-p-nitroanilide (1 mmol/l) at pH 5.5 for DPP II, Ala-Pro-p-nitroanilide (300 μmol/l) at pH 7.4 for DPP9 and Ala-Pro-p-nitroanilide (2 mmol/l) at pH 7.4 for FAP activity measurement. To evaluate the endopeptidase activity of FAP and the influence of inhibitors thereon, Z-Gly-Pro-AMC and Z-Gly-Pro-p-nitroanilide were used at a final concentration of 300 and 100 μmol/l, respectively. The substrate concentrations were chosen around the Km value obtained under the assay conditions used. Buffer compositions for the DPP assays were reported before in the purification articles—vide supra. The FAP assay buffer consisted of 50 mM Tris pH7.4 containing 100 mmol/l NaCl and 0.1 mg/ml bovine serum albumin. The PREP activity was measured as described by Brandt et al. using the chromogenic substrate Z-Gly-Pro-p-nitroanilide (0.25 mmol/l) at pH 7.5 in the presence of 10 mmol/l DTT.^18Test compounds were dissolved and diluted in DMSO (final concentration DMSO during assay 5% v/v) except for FAP where dilution of the inhibitor was done in water. […] The concentration of enzyme and of inhibitor during the preincubation is double of the final concentration during activity measurement.
Target sequence in this assay (P97321 26-761): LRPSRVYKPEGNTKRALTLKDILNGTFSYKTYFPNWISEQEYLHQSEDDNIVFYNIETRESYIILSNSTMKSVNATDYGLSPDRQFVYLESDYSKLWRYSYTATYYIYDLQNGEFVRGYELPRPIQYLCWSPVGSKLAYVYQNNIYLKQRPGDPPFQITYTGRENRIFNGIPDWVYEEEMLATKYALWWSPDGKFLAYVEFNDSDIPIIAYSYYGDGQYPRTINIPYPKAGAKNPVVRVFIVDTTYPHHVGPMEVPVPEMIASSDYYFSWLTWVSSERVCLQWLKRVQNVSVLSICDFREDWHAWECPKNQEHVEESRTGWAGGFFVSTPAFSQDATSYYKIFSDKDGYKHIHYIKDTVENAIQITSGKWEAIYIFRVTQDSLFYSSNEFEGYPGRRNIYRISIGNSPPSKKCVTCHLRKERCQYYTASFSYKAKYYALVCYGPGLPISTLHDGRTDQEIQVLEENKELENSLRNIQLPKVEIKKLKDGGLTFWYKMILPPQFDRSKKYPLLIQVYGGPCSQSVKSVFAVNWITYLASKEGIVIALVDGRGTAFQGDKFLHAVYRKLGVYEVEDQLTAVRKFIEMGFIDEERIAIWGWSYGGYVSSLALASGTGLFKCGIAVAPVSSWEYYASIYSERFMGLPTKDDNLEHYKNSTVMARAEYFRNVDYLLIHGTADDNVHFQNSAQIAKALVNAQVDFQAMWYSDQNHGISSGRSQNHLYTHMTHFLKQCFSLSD

In the next data set the target is PREP (Homo sapiens (Human), UniProt P48147). The data set can be described thus: PREP IC50, purified enzyme, substrate Z-Gly-Pro-p-nitroanilide. It is filed as biochemical. The procedure:
as §1, §2, §3, §4

Another data set has as its target DPP II (Homo sapiens (Human), UniProt Q9UHL4). Put plainly: DPP II IC50, purified enzyme, substrate Lys-Ala-p-nitroanilide. It is filed as biochemical. Conditions: read-out: IC50 DPP2. The procedure: as §1, §2, §3, §4
The target of a further data set is DPP IV (Homo sapiens (Human), UniProt P27487). Put plainly: DPP IV IC50, purified enzyme, substrate Gly-Pro-p-nitroanilide. It counts as biochemical. Conditions: Tables 3 and 4; read-out: IC50 DPPIV. The procedure:
as §1, §2, §3, §4

A short description of the next data set: LOG D, pH 7.4. It counts as physicochemical.
A further data set can be described thus: Plasma stability (mouse). It counts as in vitro ADME.
Another data set can be described thus: Plasma stability (human). It counts as in vitro ADME.
Data set [2] can be described thus: Metabolic stability (mouse). Conditions: after 24 h. It is filed as in vitro ADME.
The next data set is described as follows: Kinetic solubility. It is filed as physicochemical. Conditions: kinetic from dmso stock.
The next data set deals with endogenous FAP (Homo sapiens (Human), UniProt Q12884). The data set can be described thus: Inhibition of endogenous FAP activity in plasma. It counts as biochemical. The following applies: read-out: Plasma FAP activity inhibited.
Chain of endogenous FAP (Q12884 24-760): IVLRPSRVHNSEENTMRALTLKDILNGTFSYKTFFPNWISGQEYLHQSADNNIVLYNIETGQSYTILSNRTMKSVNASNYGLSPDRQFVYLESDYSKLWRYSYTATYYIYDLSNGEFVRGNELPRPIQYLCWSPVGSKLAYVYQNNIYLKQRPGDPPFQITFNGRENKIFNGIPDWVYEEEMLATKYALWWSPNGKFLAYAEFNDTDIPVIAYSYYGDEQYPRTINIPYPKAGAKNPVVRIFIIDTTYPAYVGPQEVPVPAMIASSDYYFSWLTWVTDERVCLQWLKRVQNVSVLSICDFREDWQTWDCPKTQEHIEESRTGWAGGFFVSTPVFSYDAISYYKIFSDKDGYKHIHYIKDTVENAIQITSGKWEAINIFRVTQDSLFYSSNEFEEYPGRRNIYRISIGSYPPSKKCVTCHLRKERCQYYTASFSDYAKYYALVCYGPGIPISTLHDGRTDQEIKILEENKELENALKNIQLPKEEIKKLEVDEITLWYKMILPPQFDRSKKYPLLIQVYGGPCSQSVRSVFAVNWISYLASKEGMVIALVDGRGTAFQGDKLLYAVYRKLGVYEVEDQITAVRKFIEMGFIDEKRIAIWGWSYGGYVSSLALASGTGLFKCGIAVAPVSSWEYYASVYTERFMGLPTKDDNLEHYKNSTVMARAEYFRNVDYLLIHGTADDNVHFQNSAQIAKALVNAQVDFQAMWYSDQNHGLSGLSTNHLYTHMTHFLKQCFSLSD
Data set [3] deals with T1, FAP. Put plainly: Functional stability in rat plasma. The following applies: over 12 h at 37° C., final concentrations of 2.5 and 5 nmol/l.
For data set [4], the target named is T1, FAP. The data set can be described thus: Functional stability in human plasma. Conditions: over 12 h at 37° C., final concentrations of 2.5 and 5 nmol/l.

In general, IC50 refers to the point on the concentration scale where inhibition reaches its midpoint. What is called logD is lipophilicity at a set pH, counting ionised and neutral species. Read a high logD as higher lipophilicity. Broadly, the solubility (kinetic) is the concentration staying in solution when a stock, usually in DMSO, is diluted into the medium.

Chain of DPP IV (P27487 whole entry, species assumed): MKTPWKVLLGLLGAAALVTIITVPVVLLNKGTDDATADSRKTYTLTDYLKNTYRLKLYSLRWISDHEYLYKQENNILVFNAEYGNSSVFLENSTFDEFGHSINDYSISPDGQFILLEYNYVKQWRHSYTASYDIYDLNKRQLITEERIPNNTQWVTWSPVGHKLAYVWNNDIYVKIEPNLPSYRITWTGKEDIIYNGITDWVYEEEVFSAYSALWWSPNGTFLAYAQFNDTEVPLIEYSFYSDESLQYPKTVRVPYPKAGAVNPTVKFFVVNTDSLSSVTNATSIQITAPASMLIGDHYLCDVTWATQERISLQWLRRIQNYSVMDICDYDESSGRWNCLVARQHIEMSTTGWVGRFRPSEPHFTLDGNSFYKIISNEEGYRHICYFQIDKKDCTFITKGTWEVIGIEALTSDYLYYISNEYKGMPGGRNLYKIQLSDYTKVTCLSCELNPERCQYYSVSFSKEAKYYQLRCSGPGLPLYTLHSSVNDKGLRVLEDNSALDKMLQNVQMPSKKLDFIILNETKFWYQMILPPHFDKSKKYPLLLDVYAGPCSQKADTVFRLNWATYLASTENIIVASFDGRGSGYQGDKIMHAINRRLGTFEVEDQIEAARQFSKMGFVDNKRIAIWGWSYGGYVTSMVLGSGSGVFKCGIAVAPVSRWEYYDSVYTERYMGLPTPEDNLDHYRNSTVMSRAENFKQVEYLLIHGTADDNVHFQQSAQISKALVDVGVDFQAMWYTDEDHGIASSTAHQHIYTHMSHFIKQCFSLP
Chain of PREP (P48147 whole entry): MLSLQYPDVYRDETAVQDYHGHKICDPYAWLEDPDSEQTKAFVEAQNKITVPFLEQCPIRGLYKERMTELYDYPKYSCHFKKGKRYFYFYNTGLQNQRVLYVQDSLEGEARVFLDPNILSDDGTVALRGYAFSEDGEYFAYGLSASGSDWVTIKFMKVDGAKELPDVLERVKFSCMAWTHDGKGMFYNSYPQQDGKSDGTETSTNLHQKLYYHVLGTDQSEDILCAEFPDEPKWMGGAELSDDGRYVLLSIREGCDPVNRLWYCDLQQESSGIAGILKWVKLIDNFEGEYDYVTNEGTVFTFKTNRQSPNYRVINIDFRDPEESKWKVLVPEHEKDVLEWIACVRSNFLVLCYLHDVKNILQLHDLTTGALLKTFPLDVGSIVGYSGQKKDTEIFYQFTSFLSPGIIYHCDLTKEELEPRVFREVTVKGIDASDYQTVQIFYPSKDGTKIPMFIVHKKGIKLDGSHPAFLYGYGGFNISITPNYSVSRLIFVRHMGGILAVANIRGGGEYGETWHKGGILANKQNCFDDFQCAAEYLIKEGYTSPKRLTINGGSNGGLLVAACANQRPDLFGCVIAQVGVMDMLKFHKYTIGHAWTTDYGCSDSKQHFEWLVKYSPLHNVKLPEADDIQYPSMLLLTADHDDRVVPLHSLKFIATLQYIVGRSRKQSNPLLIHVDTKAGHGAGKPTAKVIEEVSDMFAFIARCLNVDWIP
Procedure for endogenous FAP: Final dilution of the plasma in the assay is 20 times. The ‘total’ activity (FAP AND PREP) is measured when DTT is present, while in the absence of DTT, only FAP activity can be measured. The endogenous PREP activity is calculated as the difference between the ‘total’ activity and the FAP activity.

For `N#C[C@@H]1CCCN1C(=O)CNC(=O)c1ccnc2cccc(Br)c12` [Cmpd No 22, (S)-5-bromo-N-(2-(2-cyanopyrrolidine-1-yl)-2-oxoethyl)quinoline-4-carboxamide], the “Selectivity index FAP/PREP” value at FAP [1] is listed as >4500. The IC50 was 0.011 ± 0.0004 µM against FAP [1] (Tables 3 and 4); > 50 µM against PREP; > 100 µM on DPP II; > 100 µM on DPP IV. Also, the logD in the data set “LOG D, pH 7.4” is 0.7. Moreover, the “Plasma stability (mouse)” value in the data set “Plasma stability (mouse)” is listed as >6 h. For the same compound, the “Plasma stability (human)” value in the data set “Plasma stability (human)” was >6 h. Also, the “Metabolic stability (mouse)” value in data set [2] was 70% after.

For `N#C[C@@H]1CCCN1C(=O)CNC(=O)c1ccnc2ccccc12` [Cmpd No 2, (S)—N-(2-(2-cyanopyrrolidine-1-yl)-2-oxoethyl)quinoline-4-carboxamide], the IC50 at DPP IV was > 100 µM. For the same compound, in the data set “LOG D, pH 7.4”, the “LOG D” value came out at 0.51. The kinetic solubility in the data set “Kinetic solubility” is > 200 µM. For the same compound, the “Plasma stability (mouse)” value in the data set “Plasma stability (mouse)” was >24 h.

`N#C[C@@H]1CC(F)(F)CN1C(=O)CNC(=O)c1ccnc2ccccc12` [Cmpd No 1, (S)—N-(2-(2-cyano-4,4-difluoropyrrolidin-1-yl)-2-oxoethyl)quinine-4-carboxamide]: the inhibition at 0.1 µM on endogenous FAP is > 90%. The compound further returned a logD in “LOG D, pH 7.4” of 1. Also, the solubility (kinetic) in “Kinetic solubility” is > 200 µM. Also, the “Inhibition after preincubation in plasma” value at FAP [3] and on FAP [4] was ≥ 50% each time.
